target: T1, Alpha-2A adrenergic receptor (Homo sapiens, UniProt P08913); assay type: cell membranes, Sf9, Membrane; details: sf9; further: in other assays of this panel Not Active means under 50% inhibition at 10 µM
T1 sequence (P08913 whole entry): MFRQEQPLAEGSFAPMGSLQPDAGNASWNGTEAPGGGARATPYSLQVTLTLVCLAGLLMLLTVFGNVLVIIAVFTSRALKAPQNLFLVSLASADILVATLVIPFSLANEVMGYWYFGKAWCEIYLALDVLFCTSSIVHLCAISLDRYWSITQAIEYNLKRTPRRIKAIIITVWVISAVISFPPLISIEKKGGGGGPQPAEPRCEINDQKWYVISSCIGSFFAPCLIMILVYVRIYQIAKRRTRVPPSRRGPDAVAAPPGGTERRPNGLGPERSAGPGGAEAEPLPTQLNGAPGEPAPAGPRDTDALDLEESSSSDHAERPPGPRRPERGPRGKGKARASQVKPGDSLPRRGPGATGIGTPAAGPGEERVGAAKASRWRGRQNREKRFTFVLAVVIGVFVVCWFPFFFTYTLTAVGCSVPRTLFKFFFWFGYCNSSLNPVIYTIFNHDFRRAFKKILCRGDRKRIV

SMILES | IC50
C#C[C@]1(O)CC[C@H]2[C@@H]3CCC4=CC(=O)CC[C@]4(C)[C@H]3CC[C@@]21C [ETHISTERONE] | Not Active
CC(O)(P(=O)(O)O)P(=O)(O)O [ETIDRONIC ACID] | Not Active
CN1CCN(c2c(F)cc3c(=O)c(C(=O)O)cn(CCF)c3c2F)CC1 [FLEROXACIN] | Not Active
O=c1[nH]c(=O)n([C@H]2C[C@H](O)[C@@H](CO)O2)cc1F [FLOXURIDINE] | Not Active
COC(=O)Nc1nc2cc(C(=O)c3ccc(F)cc3)ccc2[nH]1 [FLUBENDAZOLE] | Not Active
CC(=O)OCC(=O)[C@@]1(O)CC[C@H]2[C@@H]3CCC4=CC(=O)CC[C@]4(C)[C@@]3(F)[C@@H](O)C[C@@]21C [FLUDROCORTISONE ACETATE] | Not Active
CCOC(=O)c1ncn2c1CN(C)C(=O)c1cc(F)ccc1-2 [FLUMAZENIL] | Not Active

target: Beta-1 adrenergic receptor (Homo sapiens, UniProt P08588); experiment: DRUGMATRIX: Adrenergic beta1 radioligand binding (ligand: [125I] Cyanopindolol); assay type: cell membranes, CHO-K1, Membrane; details: cho-k1; Not Active = under 50% inhibition at 10 µM
Sequence (P08588 whole entry): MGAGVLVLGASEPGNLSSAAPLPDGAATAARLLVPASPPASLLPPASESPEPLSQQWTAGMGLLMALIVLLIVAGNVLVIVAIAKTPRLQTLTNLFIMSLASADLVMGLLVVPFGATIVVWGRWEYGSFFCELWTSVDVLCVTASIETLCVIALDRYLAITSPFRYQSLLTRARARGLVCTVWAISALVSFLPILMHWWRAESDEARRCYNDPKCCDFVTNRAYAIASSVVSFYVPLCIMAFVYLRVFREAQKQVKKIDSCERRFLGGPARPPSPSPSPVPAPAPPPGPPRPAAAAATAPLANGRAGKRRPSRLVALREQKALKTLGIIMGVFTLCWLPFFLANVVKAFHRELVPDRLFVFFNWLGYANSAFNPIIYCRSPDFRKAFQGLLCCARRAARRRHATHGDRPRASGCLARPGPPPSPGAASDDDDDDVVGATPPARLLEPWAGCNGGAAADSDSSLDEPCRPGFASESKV

SMILES | IC50
C#C[C@]1(O)CC[C@H]2[C@@H]3CCC4=CC(=O)CC[C@]4(C)[C@H]3CC[C@@]21C [ETHISTERONE] | Not Active
CC(O)(P(=O)(O)O)P(=O)(O)O [ETIDRONIC ACID] | Not Active
CN1CCN(c2c(F)cc3c(=O)c(C(=O)O)cn(CCF)c3c2F)CC1 [FLEROXACIN] | Not Active
O=c1[nH]c(=O)n([C@H]2C[C@H](O)[C@@H](CO)O2)cc1F [FLOXURIDINE] | Not Active
COC(=O)Nc1nc2cc(C(=O)c3ccc(F)cc3)ccc2[nH]1 [FLUBENDAZOLE] | Not Active
CC(=O)OCC(=O)[C@@]1(O)CC[C@H]2[C@@H]3CCC4=CC(=O)CC[C@]4(C)[C@@]3(F)[C@@H](O)C[C@@]21C [FLUDROCORTISONE ACETATE] | Not Active
CCOC(=O)c1ncn2c1CN(C)C(=O)c1cc(F)ccc1-2 [FLUMAZENIL] | Not Active

target: C-C chemokine receptor type 2 (Homo sapiens, UniProt P41597); assay type: cell membranes, Membrane; details: cho-k1; further: in other assays of this panel Not Active means under 50% inhibition at 10 µM
Sequence (P41597 whole entry): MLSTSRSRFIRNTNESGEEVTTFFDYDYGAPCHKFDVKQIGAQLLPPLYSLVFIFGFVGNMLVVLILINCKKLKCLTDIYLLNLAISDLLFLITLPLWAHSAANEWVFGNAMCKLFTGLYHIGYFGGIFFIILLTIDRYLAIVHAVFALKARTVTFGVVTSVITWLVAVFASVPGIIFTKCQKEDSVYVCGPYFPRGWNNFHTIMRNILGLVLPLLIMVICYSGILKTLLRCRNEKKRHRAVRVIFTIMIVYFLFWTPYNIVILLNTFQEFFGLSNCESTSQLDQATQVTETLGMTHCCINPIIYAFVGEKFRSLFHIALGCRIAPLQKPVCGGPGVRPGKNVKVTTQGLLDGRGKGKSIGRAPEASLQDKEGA

SMILES | IC50
C#C[C@]1(O)CC[C@H]2[C@@H]3CCC4=CC(=O)CC[C@]4(C)[C@H]3CC[C@@]21C [ETHISTERONE] | Not Active
CC(O)(P(=O)(O)O)P(=O)(O)O [ETIDRONIC ACID] | Not Active
CN1CCN(c2c(F)cc3c(=O)c(C(=O)O)cn(CCF)c3c2F)CC1 [FLEROXACIN] | Not Active
O=c1[nH]c(=O)n([C@H]2C[C@H](O)[C@@H](CO)O2)cc1F [FLOXURIDINE] | Not Active
COC(=O)Nc1nc2cc(C(=O)c3ccc(F)cc3)ccc2[nH]1 [FLUBENDAZOLE] | Not Active
CC(=O)OCC(=O)[C@@]1(O)CC[C@H]2[C@@H]3CCC4=CC(=O)CC[C@]4(C)[C@@]3(F)[C@@H](O)C[C@@]21C [FLUDROCORTISONE ACETATE] | Not Active
CCOC(=O)c1ncn2c1CN(C)C(=O)c1cc(F)ccc1-2 [FLUMAZENIL] | Not Active

target: T2, Muscarinic acetylcholine receptor M5 (Homo sapiens, UniProt P08912); assay type: cell membranes, CHO-K1, Membrane; details: cho-k1; further: in other assays of this panel Not Active means under 50% inhibition at 10 µM
T2 sequence (P08912 whole entry): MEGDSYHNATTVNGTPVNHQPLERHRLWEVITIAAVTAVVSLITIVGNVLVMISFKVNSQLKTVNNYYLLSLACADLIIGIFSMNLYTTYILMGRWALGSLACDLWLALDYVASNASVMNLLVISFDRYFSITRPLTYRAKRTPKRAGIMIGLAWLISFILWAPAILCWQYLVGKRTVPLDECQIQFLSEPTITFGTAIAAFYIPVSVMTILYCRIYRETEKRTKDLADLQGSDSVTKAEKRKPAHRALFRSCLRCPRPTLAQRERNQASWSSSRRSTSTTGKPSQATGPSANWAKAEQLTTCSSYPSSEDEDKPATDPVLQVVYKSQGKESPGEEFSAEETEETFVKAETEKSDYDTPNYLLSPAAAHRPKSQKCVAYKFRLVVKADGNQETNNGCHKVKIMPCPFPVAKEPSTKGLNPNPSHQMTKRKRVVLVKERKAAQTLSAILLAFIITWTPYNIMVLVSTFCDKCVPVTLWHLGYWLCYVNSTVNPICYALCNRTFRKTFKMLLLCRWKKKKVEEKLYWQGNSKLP

SMILES | IC50
C#C[C@]1(O)CC[C@H]2[C@@H]3CCC4=CC(=O)CC[C@]4(C)[C@H]3CC[C@@]21C [ETHISTERONE] | Not Active
CC(O)(P(=O)(O)O)P(=O)(O)O [ETIDRONIC ACID] | Not Active
CN1CCN(c2c(F)cc3c(=O)c(C(=O)O)cn(CCF)c3c2F)CC1 [FLEROXACIN] | Not Active
O=c1[nH]c(=O)n([C@H]2C[C@H](O)[C@@H](CO)O2)cc1F [FLOXURIDINE] | Not Active
COC(=O)Nc1nc2cc(C(=O)c3ccc(F)cc3)ccc2[nH]1 [FLUBENDAZOLE] | Not Active
CC(=O)OCC(=O)[C@@]1(O)CC[C@H]2[C@@H]3CCC4=CC(=O)CC[C@]4(C)[C@@]3(F)[C@@H](O)C[C@@]21C [FLUDROCORTISONE ACETATE] | Not Active
CCOC(=O)c1ncn2c1CN(C)C(=O)c1cc(F)ccc1-2 [FLUMAZENIL] | Not Active

target: Epidermal growth factor receptor (Homo sapiens, UniProt P00533); experiment: DRUGMATRIX: Protein Tyrosine Kinase, EGF Receptor enzyme inhibition (substrate: Poly(Glu:Tyr)); assay type: cell-based, Insect cells; details: insect cells; Not Active = under 50% inhibition at 10 µM
Sequence (P00533 whole entry): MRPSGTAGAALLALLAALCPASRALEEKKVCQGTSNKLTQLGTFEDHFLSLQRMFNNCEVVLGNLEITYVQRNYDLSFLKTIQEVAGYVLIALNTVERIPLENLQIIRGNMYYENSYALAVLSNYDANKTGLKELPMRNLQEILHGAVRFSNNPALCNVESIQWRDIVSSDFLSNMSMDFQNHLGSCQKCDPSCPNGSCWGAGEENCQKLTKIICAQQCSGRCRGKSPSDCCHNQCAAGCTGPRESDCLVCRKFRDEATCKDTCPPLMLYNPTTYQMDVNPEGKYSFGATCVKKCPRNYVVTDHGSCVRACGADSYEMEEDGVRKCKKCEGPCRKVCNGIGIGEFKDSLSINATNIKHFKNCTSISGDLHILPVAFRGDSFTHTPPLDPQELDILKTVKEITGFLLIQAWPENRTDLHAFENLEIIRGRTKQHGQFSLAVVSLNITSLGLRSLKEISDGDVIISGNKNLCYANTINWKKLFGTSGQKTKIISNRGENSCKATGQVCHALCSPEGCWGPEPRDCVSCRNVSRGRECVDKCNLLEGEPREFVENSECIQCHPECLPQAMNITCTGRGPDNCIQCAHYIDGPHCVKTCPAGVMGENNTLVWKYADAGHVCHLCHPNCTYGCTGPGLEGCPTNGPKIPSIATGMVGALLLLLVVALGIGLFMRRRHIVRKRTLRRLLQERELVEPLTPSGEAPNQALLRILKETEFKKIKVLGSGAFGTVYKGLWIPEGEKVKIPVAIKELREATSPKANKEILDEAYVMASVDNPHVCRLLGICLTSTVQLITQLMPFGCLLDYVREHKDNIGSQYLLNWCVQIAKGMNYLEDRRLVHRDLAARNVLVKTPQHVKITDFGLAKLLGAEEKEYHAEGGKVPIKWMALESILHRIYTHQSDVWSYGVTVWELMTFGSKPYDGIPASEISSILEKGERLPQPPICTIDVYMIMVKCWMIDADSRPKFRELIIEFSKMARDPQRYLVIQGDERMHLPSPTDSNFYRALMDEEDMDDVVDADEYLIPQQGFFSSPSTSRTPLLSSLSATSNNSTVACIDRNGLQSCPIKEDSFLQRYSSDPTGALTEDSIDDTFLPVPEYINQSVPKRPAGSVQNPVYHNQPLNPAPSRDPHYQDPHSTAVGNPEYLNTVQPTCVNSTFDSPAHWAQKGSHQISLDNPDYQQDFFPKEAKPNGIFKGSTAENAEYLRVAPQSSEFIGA

SMILES | IC50
C#C[C@]1(O)CC[C@H]2[C@@H]3CCC4=CC(=O)CC[C@]4(C)[C@H]3CC[C@@]21C [ETHISTERONE] | Not Active
CC(O)(P(=O)(O)O)P(=O)(O)O [ETIDRONIC ACID] | Not Active
CN1CCN(c2c(F)cc3c(=O)c(C(=O)O)cn(CCF)c3c2F)CC1 [FLEROXACIN] | Not Active
O=c1[nH]c(=O)n([C@H]2C[C@H](O)[C@@H](CO)O2)cc1F [FLOXURIDINE] | Not Active
COC(=O)Nc1nc2cc(C(=O)c3ccc(F)cc3)ccc2[nH]1 [FLUBENDAZOLE] | Not Active
CC(=O)OCC(=O)[C@@]1(O)CC[C@H]2[C@@H]3CCC4=CC(=O)CC[C@]4(C)[C@@]3(F)[C@@H](O)C[C@@]21C [FLUDROCORTISONE ACETATE] | Not Active
CCOC(=O)c1ncn2c1CN(C)C(=O)c1cc(F)ccc1-2 [FLUMAZENIL] | Not Active

target: Cytochrome P450 2C19 (Homo sapiens, UniProt P33261); details: bti-tn-5b1-4; further: in other assays of this panel Not Active means under 50% inhibition at 10 µM
Sequence (P33261 whole entry): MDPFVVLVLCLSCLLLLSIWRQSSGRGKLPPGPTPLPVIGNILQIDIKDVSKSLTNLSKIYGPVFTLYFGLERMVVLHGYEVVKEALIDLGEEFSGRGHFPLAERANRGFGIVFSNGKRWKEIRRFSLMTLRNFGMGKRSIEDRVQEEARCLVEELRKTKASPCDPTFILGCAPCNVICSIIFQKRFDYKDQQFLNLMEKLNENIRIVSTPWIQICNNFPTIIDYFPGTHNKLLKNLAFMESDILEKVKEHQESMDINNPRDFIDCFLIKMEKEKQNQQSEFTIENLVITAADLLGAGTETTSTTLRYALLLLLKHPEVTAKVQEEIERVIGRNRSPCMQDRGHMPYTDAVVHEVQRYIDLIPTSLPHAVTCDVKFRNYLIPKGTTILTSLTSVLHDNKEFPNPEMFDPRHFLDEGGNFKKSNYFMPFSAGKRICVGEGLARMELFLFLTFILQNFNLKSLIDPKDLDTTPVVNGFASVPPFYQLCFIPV

SMILES | IC50 | Ki
C#C[C@]1(O)CC[C@H]2[C@@H]3CCC4=CC(=O)CC[C@]4(C)[C@H]3CC[C@@]21C [ETHISTERONE] | Not Active | Not Active
CC(O)(P(=O)(O)O)P(=O)(O)O [ETIDRONIC ACID] | Not Active | Not Active
CN1CCN(c2c(F)cc3c(=O)c(C(=O)O)cn(CCF)c3c2F)CC1 [FLEROXACIN] | Not Active | Not Active
O=c1[nH]c(=O)n([C@H]2C[C@H](O)[C@@H](CO)O2)cc1F [FLOXURIDINE] | Not Active | Not Active
COC(=O)Nc1nc2cc(C(=O)c3ccc(F)cc3)ccc2[nH]1 [FLUBENDAZOLE] | Not Active | Not Active
CC(=O)OCC(=O)[C@@]1(O)CC[C@H]2[C@@H]3CCC4=CC(=O)CC[C@]4(C)[C@@]3(F)[C@@H](O)C[C@@]21C [FLUDROCORTISONE ACETATE] | Not Active | Not Active
CCOC(=O)c1ncn2c1CN(C)C(=O)c1cc(F)ccc1-2 [FLUMAZENIL] | Not Active | Not Active

Source: ChEMBL document CHEMBL1909046, “DrugMatrix in vitro pharmacology data”
